Experimental data published in patent US11058678B2 (Enanta Pharmaceuticals, Inc., priority 2018, dated 2021).

Tests used:
[1] = Compound induced cellular toxicity in HepG2 cells (ATPlite 1 Step); format: cell-based; details: human, three days, 50% reduction of total ATP levels vs no drug controls
Method: At day 3, post seeding cells are treated with ATPlite 1 Step according to the manufacturer's instructions.

[2] = system: HBV (2.2.15 cells); experiment: Antiviral activity in 2.2.15 cells: reduction of viral product accumulation (qPCR of lysates, HBsAg or HBeAg ELISA); format: cell-based, hepatitis B virus (HBV); details: Hepatitis B virus, 120 h, day 5 post treatment, 50% reduction of viral product accumulation in lysates or supernatants vs no drug controls, readout (qPCR, HBsAg, HBeAg) not specified
Outline: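 HBV-producing 2.2.15 cells, 35,000/well, treated with 5-fold serial compound dilutions at 0.5% final DMSO for 5 days. Lysate HBV DNA by qPCR or supernatant HBsAg/HBeAg by ELISA; EC50 is 50% reduction versus no-drug control, binned A<0.1 μM, B 0.1-1 μM, C>1 μM.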

Structure (SMILES)	CC50 at 3 days [1] [µM]	EC50 [2] [µM]
CC(C)(C)[C@@H]1Cc2c(cc(-c3cccc(F)c3)c3c2CCO3)-c2cc(=O)c(C(=O)O)cn21 [Example 65, (S)-5-(tert-butyl)-12-(3-fluorophenyl)-9-oxo-2,3,4,9-tetrahydro-5H-furo[3,2-f]pyrido[2,1-a]isoquinoline-8-carboxylic Acid]	< 10	< 0.1
COCCCOc1cc2c(cc1-c1cnc3ccccc3c1)-c1cc(=O)c(C(=O)O)cn1[C@H](C(C)(C)C)C2 [Example 12, (S)-6-(tert-butyl)-9-(3-methoxypropoxy)-2-oxo-10-(quinolin-3-yl)-6,7-dihydro-2H-pyrido[2,1-a]isoquinoline-3-carboxylic Acid]	> 25	< 0.1
CC(C)(C)[C@@H]1Cc2c(cc(-c3ccccc3F)c3c2CCO3)-c2cc(=O)c(C(=O)O)cn21 [Example 66, (S)-5-(tert-butyl)-12-(2-fluorophenyl)-9-oxo-2,3,4,9-tetrahydro-5H-furo[3,2-f]pyrido[2,1-a]isoquinoline-8-carboxylic Acid]	< 10	< 0.1
CC(C)(C)[C@@H]1Cc2c(cc(N3CC(F)(F)C3)c3c2CCO3)-c2cc(=O)c(C(=O)O)cn21 [Example 30, (S)-5-(tert-butyl)-12-(3,3-difluoroazetidin-1-yl)-9-oxo-2,3,4,9-tetrahydro-5H-furo[3,2-f]pyrido[2,1-a]isoquinoline-8-carboxylic Acid]	> 25	< 0.1
COCCCOc1cc2c(cc1-c1ccc(F)cc1)-c1cc(=O)c(C(=O)O)cn1[C@H]1[C@@H]2COC1(C)C [Example 61, (3aS,12bR)-10-(4-fluorophenyl)-11-(3-methoxypropoxy)-3,3-dimethyl-7-oxo-3,3a,7,12b-tetrahydro-1H-furo[3,4-c]pyrido[2,1-a]isoquinoline-6-carboxylic Acid]	> 25	< 0.1
CC(C)(C)[C@@H]1Cc2c(cc(-c3ccc(F)cc3)c3c2CCO3)-c2cc(=O)c(C(=O)O)cn21 [Example 62, (S)-5-(tert-butyl)-12-(4-fluorophenyl)-9-oxo-2,3,4,9-tetrahydro-5H-furo[3,2-f]pyrido[2,1-a]isoquinoline-8-carboxylic Acid]	< 10	< 0.1
COCCCOc1cc2c(cc1-c1cccc(OC)c1)-c1cc(=O)c(C(=O)O)cn1[C@H](C(C)(C)C)C2 [Example 16, (S)-6-(tert-butyl)-10-(3-methoxyphenyl)-9-(3-methoxypropoxy)-2-oxo-6,7-dihydro-2H-pyrido[2,1-a]isoquinoline-3-carboxylic Acid]	10 to 25	< 0.1
CC(C)(C)[C@@H]1Cc2c(cc(-c3ccsc3)c3c2CCO3)-c2cc(=O)c(C(=O)O)cn21 [Example 71, (S)-5-(tert-butyl)-9-oxo-12-(thiophen-3-yl)-2,3,4,9-tetrahydro-5H-furo[3,2-f]pyrido[2,1-a]isoquinoline-8-carboxylic Acid]	< 10	< 0.1
COCCCOc1cc2c(cc1-c1cc[nH]c1)-c1cc(=O)c(C(=O)O)cn1[C@H](C(C)(C)C)C2 [Example 11, (S)-6-(tert-butyl)-9-(3-methoxypropoxy)-2-oxo-10-(1H-pyrrol-3-yl)-6,7-dihydro-2H-pyrido[2,1-a]isoquinoline-3-carboxylic Acid]	> 25	< 0.1
COCCCOc1cc2c(cc1-c1ccc(F)cc1)-c1cc(=O)c(C(=O)O)cn1[C@H](C(C)(C)C)C2 [Example 15, (S)-6-(tert-butyl)-10-(4-fluorophenyl)-9-(3-methoxypropoxy)-2-oxo-6,7-dihydro-2H-pyrido[2,1-a]isoquinoline-3-carboxylic Acid]	10 to 25	< 0.1
COCCCOc1cc2c(cc1-c1ccccc1)-c1cc(=O)c(C(=O)O)cn1[C@H](C(C)(C)C)C2 [Example 3, (S)-6-(tert-butyl)-9-(3-methoxypropoxy)-2-oxo-10-phenyl-6,7-dihydro-2H-pyrido[2,1-a]isoquinoline-3-carboxylic Acid]	< 10	< 0.1
COCCCOc1cc2c(cc1-c1ccoc1)-c1cc(=O)c(C(=O)O)cn1[C@H](C(C)(C)C)C2 [Example 2, (S)-6-(tert-butyl)-10-(furan-3-yl)-9-(3-methoxypropoxy)-2-oxo-6,7-dihydro-2H-pyrido[2,1-a]isoquinoline-3-carboxylic Acid]	> 25	< 0.1
COCCCOc1cc2c(cc1C1=CCCCO1)-c1cc(=O)c(C(=O)O)cn1[C@H](C(C)(C)C)C2 [Example 29, (S)-6-(tert-butyl)-10-(3,4-dihydro-2H-pyran-6-yl)-9-(3-methoxypropoxy)-2-oxo-6,7-dihydro-2H-pyrido[2,1-a]isoquinoline-3-carboxylic Acid]	> 25	0.1 to 1
COCCCOc1cc2c(cc1-c1sc(C)nc1C)-c1cc(=O)c(C(=O)O)cn1[C@H](C(C)(C)C)C2 [Example 20, (S)-6-(tert-butyl)-10-(2,4-dimethylthiazol-5-yl)-9-(3-methoxypropoxy)-2-oxo-6,7-dihydro-2H-pyrido[2,1-a]isoquinoline-3-carboxylic Acid]	> 25	0.1 to 1
COCCCOc1cc2c(cc1-c1ccco1)-c1cc(=O)c(C(=O)O)cn1[C@H](C(C)(C)C)C2 [Example 7, (S)-6-(tert-butyl)-10-(furan-2-yl)-9-(3-methoxypropoxy)-2-oxo-6,7-dihydro-2H-pyrido[2,1-a]isoquinoline-3-carboxylic Acid]	> 25	< 0.1
COCCCOc1cc2c(cc1-c1cnn(C)c1)-c1cc(=O)c(C(=O)O)cn1[C@H](C(C)(C)C)C2 [Example 4, (S)-6-(tert-butyl)-9-(3-methoxypropoxy)-10-(1-methyl-1H-pyrazol-4-yl)-2-oxo-6,7-dihydro-2H-pyrido[2,1-a]isoquinoline-3-carboxylic Acid]	> 25	< 0.1
CC(C)(C)[C@@H]1Cc2c(cc(-c3ccccc3)c3c2CCO3)-c2cc(=O)c(C(=O)O)cn21 [Example 67, (S)-5-(tert-butyl)-9-oxo-12-phenyl-2,3,4,9-tetrahydro-5H-furo[3,2-f]pyrido[2,1-a]isoquinoline-8-carboxylic Acid]	< 10	< 0.1
COCCCOc1cc2c(cc1-c1ccoc1)-c1cc(=O)c(C(=O)O)cn1[C@H]1[C@@H]2CCC1(C)C [Example 60, (3aS,12bR)-10-(furan-3-yl)-11-(3-methoxypropoxy)-3,3-dimethyl-7-oxo-1,2,3,3a,7,12b-hexahydrocyclopenta[c]pyrido[2,1-a]isoquinoline-6-carboxylic Acid]	10 to 25	< 0.1
COCCCOc1cc2c(cc1C1=COCC1)-c1cc(=O)c(C(=O)O)cn1[C@H](C(C)(C)C)C2 [Example 46, (S)-6-(tert-butyl)-10-(4,5-dihydrofuran-3-yl)-9-(3-methoxypropoxy)-2-oxo-6,7-dihydro-2H-pyrido[2,1-a]isoquinoline-3-carboxylic Acid]	> 25	< 0.1
CC(C)(C)[C@@H]1Cc2c(cc(-c3ccoc3)c3c2CCO3)-c2cc(=O)c(C(=O)O)cn21 [Example 64, (S)-5-(tert-butyl)-12-(furan-3-yl)-9-oxo-2,3,4,9-tetrahydro-5H-furo[3,2-f]pyrido[2,1-a]isoquinoline-8-carboxylic Acid]	< 10	< 0.1
